Patent publication US20250382239A1, “COMPOSITIONS FOR ENHANCING NITROGEN FERTILIZERS BY INCORPORATING ANTI-OXIDANT MOIETIES AND METHODS FOR USE THEREOF” (Verdesian Life Sciences U.S., LLC, priority 2022, published 2025)

Tested on: urease enzyme
Assay: Draeger tube NH3 volatilization screening of urease inhibitor compositions applied on urea prills on soil
Design: NH3 Draeger tube reading: unit not given here
Details: for urease enzyme inhibitory properties: exposed to soil alone or in combination with urea-containing fertilizer
Procedure: tBHQ (main active ingredient (AI)), solvents, additives (co-Actives) were obtained from commercial vendors. Draeger tube protocol was developed and used soils from NCSU Ag research facility at Oxford, North Carolina. Samples were prepared by co-dissolution in the appropriate solvent by rolling on a sample roller for 2-4 hours at ambient temperature and allowed to stand over weekend to make sure there was no haziness and/or precipitate that developed. Typical sample size was 4-4.5 g in a 12 mL cylindrical glass vial.
The following candidates were tBHQ+[x co-Active+y Solvent] where x and y varied.

NC(N)=O [Urea]
NH3 Draeger tube reading (Round 10 (Table 11), 18 hrs): 0
NH3 Draeger tube reading (Round 10 (Table 11), 24 hrs): 0
NH3 Draeger tube reading (Round 10 (Table 11), 42 hrs): 125
NH3 Draeger tube reading (Round 10 (Table 11), 48 hrs): 150
NH3 Draeger tube reading (Round 10 (Table 11), 66 hrs): 150
NH3 Draeger tube reading (Round 10 (Table 11), 90 hrs): 150
NH3 Draeger tube reading (Round 10 (Table 11), 120 hrs): 150
NH3 Draeger tube reading (Round 10 (Table 11), 187 hrs): 150
NH3 Draeger tube reading (Round 10 (Table 11), 210 hrs): 150
NH3 Draeger tube reading (Round 10 (Table 11), 266 hrs): 150
NH3 Draeger tube reading (Round 10 (Table 11), 288 hrs): 150
NH3 Draeger tube reading (Round 10 (Table 11), 330 hrs): 150
NH3 Draeger tube reading (Round 10 (Table 11), 354 hrs): 150
NH3 Draeger tube reading (Round 10 (Table 11), 381 hrs): 150
NH3 Draeger tube reading (Round 10 (Table 11), […]): 150
NH3 Draeger tube reading (Round 11 (Table 12), 16 hrs): 0
NH3 Draeger tube reading (Round 11 (Table 12), 24 hrs): 0
NH3 Draeger tube reading (Round 11 (Table 12), 40 hrs): 12
NH3 Draeger tube reading (Round 11 (Table 12), 48 hrs): 36
NH3 Draeger tube reading (Round 11 (Table 12), 64 hrs): 125.4
NH3 Draeger tube reading (Round 11 (Table 12), 88 hrs): 150
NH3 Draeger tube reading (Round 11 (Table 12), 160 hrs): 150
NH3 Draeger tube reading (Round 11 (Table 12), 184 hrs): 150
NH3 Draeger tube reading (Round 11 (Table 12), 232 hrs): 150
NH3 Draeger tube reading (Round 11 (Table 12), 256 hrs): 150
NH3 Draeger tube reading (Round 11 (Table 12), […]): 150
NH3 Draeger tube reading (Round 12 (Table 13), 15 hrs): 0
NH3 Draeger tube reading (Round 12 (Table 13), 23 hrs): 0
NH3 Draeger tube reading (Round 12 (Table 13), 39 hrs): 31
NH3 Draeger tube reading (Round 12 (Table 13), 48 hrs): 118
NH3 Draeger tube reading (Round 12 (Table 13), 66 hrs): 150
NH3 Draeger tube reading (Round 12 (Table 13), 90 hrs): 150
NH3 Draeger tube reading (Round 12 (Table 13), 111 hrs): 150
NH3 Draeger tube reading (Round 12 (Table 13), 159 hrs): 150
NH3 Draeger tube reading (Round 12 (Table 13), 192 hrs): 150
NH3 Draeger tube reading (Round 12 (Table 13), 216 hrs): 150
NH3 Draeger tube reading (Round 12 (Table 13), 239 hrs): 150
NH3 Draeger tube reading (Round 12 (Table 13), 260 hrs): 150
NH3 Draeger tube reading (Round 12 (Table 13), 283 hrs): 150
NH3 Draeger tube reading (Round 12 (Table 13), 304 hrs): 150
NH3 Draeger tube reading (Round 12 (Table 13), 327 hrs): 150
NH3 Draeger tube reading (Round 12 (Table 13), 357 hrs): 150
NH3 Draeger tube reading (Round 12 (Table 13), 375 hrs): 150
NH3 Draeger tube reading (Round 12 (Table 13), […]): 150

Oc1ccc(O)cc1 [hydroquinone, reference compound]
urease enzyme inhibitory properties: significantly less efficacious urease enzyme inhibition properties

CC(C)(C)c1cc(O)ccc1O [tert-butylhydroquinone]
urease enzyme inhibitory properties: strong urease enzyme inhibitory properties
